As a reminder, the GI50 is the concentration at which growth is held to half of that of the control. As a reminder, the MTD is the highest dose tested that stayed within the study's limit of toxicity. Read a high MTD as better tolerability.

Read-outs that look alike come from different tables or passages of the source.

The subject of one series is A549. The experiment in a line: SRB colorimetric cytotoxicity assay, A549. The class given is cell-based. Conditions: Homo sapiens, read-out: GI50 (M) A549. An excerpt: (§1) The aim of this assay is to evaluate the in vitro cytostatic (ability to delay or arrest tumor cell growth) or cytotoxic (ability to kill tumor cells) activity of the samples being tested.
(§2) A colorimetric assay, using sulforhodamine B (SRB) reaction has been adapted to provide a quantitative measurement of cell growth and viability (using the technique developed by Skehan et al., J. Natl. Cancer Inst. 1990 and following the protocol detailed in V. Vichai and K. Kirtikara (2006) Nature Protoc. 1, 1112-1116.)
(§3) This form of assay employs 96-well cell culture microplates. All the cell lines used in this study were obtained from the American Type Culture Collection (ATCC), unless otherwise indicated, and derive from different types of human cancer.
(§4) Cells were maintained in Dulbecco's Modified Eagle Medium (DMEM) (for A549, HT-29 and MDA-MB-231) or RPMI (for PSN-1) supplemented with 10% Fetal Bovine Serum (FBS), 2 mM L-glutamine, 100 U/mL penicillin and 100 U/mL streptomycin at 37° C., 5% CO2 and 98% humidity. For the experiments, cells were harvested from subconfluent cultures using trypsinization and resuspended in fresh medium before counting and plating.
(§5) Cells were seeded in 96 well microtiter plates, at 5×10^3 cells per well in aliquots of 150 μL, and allowed to attach to the plate surface for 18 hours (overnight) in drug free medium. After that, one control (untreated) plate of each cell line was fixed (as described below) and used for time zero reference value. Culture plates were then treated with test compounds (50 μL aliquots of 4× concentrated compound stock solutions made in complete culture medium) using ten serial dilutions (concentrations ranging from […]) and triplicate cultures (final concentration of DMSO being 1%). After 72 hours treatment, the antitumor effect was measured by using the SRB methodology: Briefly, cells were washed twice with PBS, fixed for 15 min in 1% glutaraldehyde solution at room temperature, rinsed twice in PBS, and stained in 0.4% SRB solution for 30 min at room temperature. Cells were then rinsed several times with 1% acetic acid solution and air-dried at room temperature. SRB was then extracted in 10 mM trizma base solution and the absorbance measured in an automated spectrophotometric plate reader at 490 nm. Effects on cell growth and survival were estimated by applying the NCI algorithm (Boyd M R and Paull K D. Drug Dev. Res. 1995, 34, 91-104).
(§6) Using the mean±SD of triplicates, a dose-response curve was automatically generated using nonlinear regression analysis to a 4-parameter logistic curve. Three reference parameters were calculated (NCI algorithm) by automatic interpolation: GI50=compound concentration that produces […] cell growth inhibition, as compared to control cultures.

Series [1] can be described thus: MTD (Maximum Tolerated Dose) determination. Conditions: Athymic Nude-Fox1 nu/nu, mouse, in vivo; iv, single dose; female athymic nude mice. The protocol: Female Athymic Nude-Fox1 nu/nu mice (Envigo) were utilized for all experiments. Animals (N=10/cage) were housed in individually ventilated cages (Sealsafe Plus®, Techniplast S.P.A.), on a 12-hour light-dark cycle at 21-23° C. and 40-60% humidity. Mice were allowed free access to irradiated standard rodent diet (Tecklad 2914C) and sterilized water. Animals were acclimated for five days prior to being individually tattoo-identified. Animal protocols were reviewed and approved according to the regional Institutional Animal Care and Use Committees.
Mice were randomly allocated into experimental groups and intravenously administered, once for the MTD (Maximum Tolerated Dose) determination or one administration a week during three consecutive weeks, for the MTMD (Maximum Tolerated Multiple Dose) determination study. The animals were administered with white formulation or with compound dissolved in the experimental formulation at different concentrations. The volume administered was always 10 mL/kg. Once administered, animals were monitored for clinical signs of systemic toxicity, changes in body weight and mortality up to 14 days after the administration.

The next series has as its system MDA-MB-231. The experiment in a line: SRB colorimetric cytotoxicity assay, MDA-MB-231. The format is cell-based. The conditions noted are these: Homo sapiens, read-out: GI50 (M) MDA-MB-231.
Description: as §1, §2, §3, §4, §5, §6

Regarding `COC1=CC[C@@H]([C@@H](C)/C=C(C)/C=C\C=C/C(=O)N[C@H](C(=O)N/C=C\C[C@H](CC=C(C)C)OC(N)=O)C(C)(C)C)OC1=O` [Compound 3], the GI50 in the series with A549 (A549, 72 h) came out at 5.98e-11 M; with MDA-MB-231 (MDA-MB-231, 72 h) it was 9.05e-11 M. In series [1], the MTD at 14 days turned out to be 1 mg/kg.
Consider `C/C=C\C[C@@H](C/C=C\NC(=O)[C@@H](NC(=O)\C=C/C=C\C(C)=C\[C@H](C)[C@@H]1CC=C(OC)C(=O)O1)C(C)(C)C)OC(N)=O` [PM060184, reference compound], for which the GI50 was 1.71e-10 M in the series on A549 (A549, 72 hours treatment, SRB) and 2.07e-10 M with MDA-MB-231 (MDA-MB-231, 72 hours treatment, SRB). This compound came in with an MTD in series [1] of 16 mg/kg.
For the compound `COC1=CC[C@@H]([C@@H](C)/C=C(C)/C=C\C=C/C(=O)N[C@H](C(=O)N/C=C\C[C@H](C/C=C(\C)F)OC(N)=O)C(C)(C)C)OC1=O` [Compound 2], the GI50 with A549 (A549, 72 h) was 4.55e-11 M; in the series on MDA-MB-231 (MDA-MB-231, 72 h) it was 4.87e-11 M. Further, the MTD at 14 days in series [1] was 2 mg/kg.

The values above are taken from patent US20250243174A1, “ANTITUMORAL COMPOUNDS” (PHARMA MAR, S.A., priority 2021, published 2025).
